Data from ChEMBL document CHEMBL1136283, “Synthesis and glycosidase inhibitory activity of some N-substituted 6-deoxy-5a-carba-beta-DL- and L-galactopyranosylamines” (Bioorg Med Chem Lett, 2003).

What was measured:
[1] = Inhibitory activity against beta-glucosidase in almond; design: species or system Prunus dulcis
Beta-galactosidase = target: T1, Beta-galactosidase (Bos taurus, UniProt Q58D55); assay: Inhibitory activity against beta-galactosidase in bovine liver; format: tissue-based
T1 sequence (Q58D55 whole entry): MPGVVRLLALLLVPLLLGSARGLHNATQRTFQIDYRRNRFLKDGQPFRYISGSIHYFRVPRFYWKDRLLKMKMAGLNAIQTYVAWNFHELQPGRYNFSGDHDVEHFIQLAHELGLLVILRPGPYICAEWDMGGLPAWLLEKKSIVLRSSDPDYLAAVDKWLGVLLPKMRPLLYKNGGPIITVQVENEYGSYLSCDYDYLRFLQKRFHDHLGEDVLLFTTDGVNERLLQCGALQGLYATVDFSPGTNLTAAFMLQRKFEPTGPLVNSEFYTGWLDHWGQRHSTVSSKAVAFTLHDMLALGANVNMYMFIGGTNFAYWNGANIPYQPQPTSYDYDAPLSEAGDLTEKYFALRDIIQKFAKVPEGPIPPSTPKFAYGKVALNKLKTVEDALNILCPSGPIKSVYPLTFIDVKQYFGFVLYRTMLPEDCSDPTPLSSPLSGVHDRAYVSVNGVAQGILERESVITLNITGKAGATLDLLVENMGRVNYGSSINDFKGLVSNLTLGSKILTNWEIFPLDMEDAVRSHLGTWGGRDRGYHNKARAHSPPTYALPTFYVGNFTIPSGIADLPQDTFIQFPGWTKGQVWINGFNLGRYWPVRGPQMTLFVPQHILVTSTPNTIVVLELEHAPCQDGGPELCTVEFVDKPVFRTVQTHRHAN

[2] = Inhibitory activity against beta-glucosidase in almond at pH 5.5; design: species or system Prunus dulcis
[3] = Inhibitory activity against beta-glucosidase in almond at pH 6.8; design: species or system Prunus dulcis

Row | SMILES | IC50 [1] | IC50 (Beta-galactosidase) | Ki [1] | Ki (Beta-galactosidase) | Ki [2] | Ki [3]
1 | CCCCCCNC1CC(C)C(O)C(O)C1O (stereo not drawn) | 730 nM | 3700 nM |  |  |  | 
2 | CCCCCCCCCCN[C@H]1CC(C)[C@@H](O)C(O)[C@@H]1O (stereo partly drawn) | 16600 nM | 1000 nM |  |  |  | 
3 | CCCCCCCCCCNC1CC(C)C(O)C(O)C1O (stereo not drawn) | 2000 nM | 200 nM | 400 nM | 9 nM |  | 
4 | CCCCCCCCN[C@H]1CC(C)[C@@H](O)C(O)[C@@H]1O (stereo partly drawn) | 14700 nM | 3700 nM |  |  |  | 
5 | CCCCCCCCNC1CC(C)C(O)C(O)C1O (stereo not drawn) | 1500 nM | 700 nM | 3200 nM | 110 nM |  | 
6 | CC1C[C@H](NCCCCc2ccccc2)[C@@H](O)C(O)[C@@H]1O (stereo partly drawn) | 10200 nM | 2400 nM |  |  |  | 
7 | CC1CC(NCCCCc2ccccc2)C(O)C(O)C1O (stereo not drawn) | 1400 nM | 900 nM | 1200 nM | 46 nM |  | 
8 | CCCCCCCCCCCCN[C@H]1CC(C)[C@@H](O)C(O)[C@@H]1O (stereo partly drawn) | 3600 nM | 3000 nM |  |  |  | 
9 | C[C@@H]1CC(NCCc2ccccc2)[C@@H](O)[C@@H](O)[C@@H]1O (stereo in doubt) | 380 nM | 5700 nM | 57 nM |  | 390 nM | 57 nM
10 | C[C@@H]1CC(NCCc2ccccc2)[C@@H](O)[C@@H](O)[C@@H]1O (stereo in doubt; 9e (D)) |  |  |  |  |  | 110 nM
